Activity calls are given as the source filed them. No cut-off for these calls is given here.

The values that follow come from ChEMBL document CHEMBL2346568, “Discovery and structure-activity relationship of thienopyridine derivatives as bone anabolic agents” (Bioorg Med Chem, 2013).

Data set [1] is described as follows: Induction of osteoblastic differentiation in mouse ST2 cells assessed as increase in alkaline phosphatase activity after 4 days by lowry method. The data set is classed as functional.
Data set [2] in a line: in vitro. As to conditions: rat, liver microsomes.
A short description of data set [3]: Induction of osteoblastic differentiation in mouse ST2 cells assessed as increase in alkaline phosphatase activity at 0.30 ug/ml after 4 days by lowry method. The data set is classed as functional.
Data set [4] is described as follows: Cmax in F344 rat at 25 mg/kg, po. The data set is classed as ADME, organism-based. Set-up: dose 25 mg/kg, route oral. As to conditions: in vivo.
Data set [5] has as its system Rattus norvegicus. Description: Bone anabolic effect in ovariectomized F344 rat postmenopausal osteoporosis model assessed as increase in areal bone mineral density of femoral diaphyses at 60 mg/kg, po bid for 6 weeks by dual energy X-ray absorptiometry. The data set is classed as functional, organism-based. Also noted: dose 60 mg/kg.
Data set [6] has as its system Rattus norvegicus. The data set is described as follows: Bone anabolic effect in ovariectomized F344 rat postmenopausal osteoporosis model assessed as increase in areal bone mineral density of distal femur at 60 mg/kg, po bid for 6 weeks by dual energy X-ray absorptiometry. The data set is classed as functional, organism-based. Set-up: dose 60 mg/kg.
The nature of data set [7]: Oral bioavailability in F344 rat at 25 mg/kg. As to conditions: in vivo. The data set is classed as ADME, organism-based.
Data set [8] in a line: AUC in F344 rat at 2 mg/kg, iv. The data set is classed as ADME, organism-based. Set-up: dose 2 mg/kg, route intravenous. As to conditions: plasma.
Data set [9] can be described thus: AUC in F344 rat at 25 mg/kg, po. The data set is classed as ADME, organism-based. Set-up: dose 25 mg/kg, route oral. As to conditions: plasma.
The subject of data set [10] is Rattus norvegicus. The data set is described as follows: Volume of distribution in F344 rat at 25 mg/kg, po. The data set is classed as ADME, organism-based. Also noted: dose 25 mg/kg, route oral. As to conditions: in vivo.
The nature of data set [11]: Volume of distribution in F344 rat at 2 mg/kg, iv. The data set is classed as ADME, organism-based. Also noted: dose 2 mg/kg, route intravenous. As to conditions: in vivo.
The subject of data set [12] is Rattus norvegicus. Description: Bone anabolic effect in ovariectomized F344 rat postmenopausal osteoporosis model assessed as increase in serum osteocalcin level at 60 mg/kg, po bid for 6 weeks by ELISA. The data set is classed as functional, organism-based. Set-up: dose 60 mg/kg.
For data set [13], the system named is Rattus norvegicus. Description: Bone anabolic effect in ovariectomized F344 rat postmenopausal osteoporosis model assessed as increase in areal bone mineral density of proximal tibiae at 60 mg/kg, po bid for 6 weeks by dual energy X-ray absorptiometry. The data set is classed as functional, organism-based. Set-up: dose 60 mg/kg.
Data set [14] in a line: Clearance in F344 rat at 25 mg/kg, po. As to conditions: in vivo.
The test system of data set [15] is Rattus norvegicus. Description: Bone anabolic effect in ovariectomized F344 rat postmenopausal osteoporosis model assessed as increase in serum osteocalcin level at 10 to 30 mg/kg, po qd for 6 weeks by ELISA. The data set is classed as functional, organism-based.
A short description of data set [16]: Half life in F344 rat at 25 mg/kg, po. As to conditions: in vivo.
Data set [17] in a line: Clearance in F344 rat at 2 mg/kg, iv. As to conditions: in vivo.
Data set [18] relates to Rattus norvegicus. The data set is described as follows: Bone anabolic effect in ovariectomized F344 rat postmenopausal osteoporosis model assessed as increase in areal bone mineral density of distal femur at 10 to 30 mg/kg, po qd for 6 weeks by dual energy X-ray absorptiometry. The data set is classed as functional, organism-based.
Data set [19] can be described thus: Half life in F344 rat at 2 mg/kg, iv. As to conditions: in vivo.
For data set [20], the system named is Rattus norvegicus. Description: Bone anabolic effect in ovariectomized F344 rat postmenopausal osteoporosis model assessed as increase in areal bone mineral density of femoral diaphyses at 10 to 30 mg/kg, po qd for 6 weeks by dual energy X-ray absorptiometry. The data set is classed as functional, organism-based.
The subject of data set [21] is Rattus norvegicus. The data set is described as follows: Bone anabolic effect in ovariectomized F344 rat postmenopausal osteoporosis model assessed as increase in areal bone mineral density of proximal tibiae at 10 to 30 mg/kg, po qd for 6 weeks by dual energy X-ray absorptiometry. The data set is classed as functional, organism-based.

Regarding `CN(C)C(=O)Cc1ccc(N2CCCN(c3ccnc4sc(C(N)=O)c(N)c34)CC2)cc1`, the EC200 in [1] came out at 0.003 µg/mL.
Still for that read-out and setting: the same measure for `CN(C)C(=O)c1ccc(N2CCCN(c3ccnc4sc(C(N)=O)c(N)c34)CC2)cc1`: 0.014 µg/mL; for `NC(=O)c1sc2nccc(N3CCCN(c4ccccn4)CC3)c2c1N`: 0.059 µg/mL.
On the same count and under the same terms, for `NC(=O)c1sc2nccc(N3CCCN(c4nccs4)CC3)c2c1N` the value was 0.036 µg/mL; for `Cc1cccc(N2CCCN(c3ccnc4sc(C(N)=O)c(N)c34)CC2)c1`, 0.074 µg/mL.
The same measure, in the same setting: the same measure for `CNC(=O)c1ccc(N2CCCN(c3ccnc4sc(C(N)=O)c(N)c34)CC2)cc1`: 0.023 µg/mL.
As for `NC(=O)c1sc2nccc(N3CCN(c4ccccc4)CC3)c2c1N`, the EC200 in data set [1] turned out to be 0.1 µg/mL. In addition, in [2], the share remaining at 0.5 h was found to be 91%.
`NC(=O)c1ccc(N2CCCN(c3ccnc4sc(C(N)=O)c(N)c34)CC2)cc1`: the EC200 in data set [1] amounted to 0.079 µg/mL.
Turning to `CN1CCN(c2ccnc3sc(C(N)=O)c(N)c23)CC1`, in data set [3], the Activity stood at 117%.
As to `NC(=O)c1sc2nccc(NC3CCCCC3)c2c1N`, in data set [1], the EC200 is 0.24 µg/mL.
As to `NC(=O)c1sc2nccc(N3CCCC3)c2c1N`, the EC200 in data set [1] was 0.29 µg/mL.
Take `CCCNc1ccnc2sc(C(N)=O)c(N)c12`: the Activity in [3] was found to be 134%.
The same measure, in the same setting: the same measure for `CCCN(CCC)c1ccnc2sc(C(N)=O)c(N)c12`: 110%.
In the case of `CN(C)c1ccnc2sc(C(N)=O)c(N)c12`, in [4], the peak level (Cmax) was 5590 ng/mL. Further, the EC200 in data set [1] worked out at 0.17 µg/mL. In addition, the outcome in data set [5], in data set [6], in [12] and in data set [13] was Active. In data set [7], the bioavailability turned out to be 87%. For the same molecule, the results for the area under the curve (AUC) in [8] and in data set [9] were 870 ng·h/mL and 9400 ng·h/mL, respectively. Besides, the Vd in [10] came out at 3.1 L/kg; in data set [11], 1.1 L/kg.
As for `COc1ccc(N2CCCN(c3ccnc4sc(C(N)=O)c(N)c34)CC2)cc1`, the EC200 in [1] was 0.035 µg/mL.
Still for that read-out and setting: the same measure for `NC(=O)c1sc2nccc(N3CCCN(c4ccncc4)CC3)c2c1N`: 0.091 µg/mL.
As for `Cc1ccc(N2CCCN(c3ccnc4sc(C(N)=O)c(N)c34)CC2)cc1`, the EC200 in data set [1] came out at 0.044 µg/mL.
On the same count and under the same terms, for `NC(=O)c1sc2nccc(N3CCCN(c4ccc(F)cc4)CC3)c2c1N` the value was 0.082 µg/mL; for `CCOC(=O)c1ccc(N2CCCN(c3ccnc4sc(C(N)=O)c(N)c34)CC2)cc1`, 0.193 µg/mL.
On the same count and under the same terms, the same measure for `N#Cc1ccc(N2CCCN(c3ccnc4sc(C(N)=O)c(N)c34)CC2)cc1`: 0.099 µg/mL.
Regarding `NC(=O)c1sc2nccc(N3CCOCC3)c2c1N`, the EC200 in [1] was 0.44 µg/mL. Moreover, in data set [2], the share remaining at 0.5 h was found to be 82%.
On to `NC(=O)c1sc2nccc(N3CCCN(c4ccc(C(=O)O)cc4)CC3)c2c1N`, for which the EC200 in [1] is more than 1 µg/mL.
`NC(=O)c1sc2nccc(N3CCCN(c4ccccc4)CC3)c2c1N` displayed a CL/F in [14] of 34 mL/min/kg. The peak level in data set [4] (Cmax) was 2540 ng/mL. The outcome in [15], in [18], in data set [20] and in data set [21] was Active. The EC200 in data set [1] was 0.051 µg/mL. Besides, the half-life is 3.22 h in [16] and 2.77 h in [19]. Further, the clearance in [17] came to 29 mL/min/kg. Besides, the amount remaining at 0.5 h in data set [2] stood at 71%. The bioavailability in data set [7] was 71%. The AUC in data set [8] was 1100 ng·h/mL; in data set [9], 9500 ng·h/mL. The Vd was determined as 8.1 L/kg in data set [10] and 4.2 L/kg in [11].
For the molecule `CC(C)(C)c1ccc(N2CCCN(c3ccnc4sc(C(N)=O)c(N)c34)CC2)cc1`, the EC200 in data set [1] is 0.27 µg/mL.
As for `NC(=O)c1sc2nccc(N3CCNCC3)c2c1N`, in data set [3], the Activity turned out to be 105%.
Take `CC(C)Oc1ccc(N2CCCN(c3ccnc4sc(C(N)=O)c(N)c34)CC2)cc1`: the EC200 in data set [1] is more than 1 µg/mL.
Same read-out and setting: for `Cc1ccccc1N1CCCN(c2ccnc3sc(C(N)=O)c(N)c23)CC1` the value was more than 1 µg/mL.
Regarding `NC(=O)c1sc2nccc(N3CCCCC3)c2c1N`, the EC200 in data set [1] was found to be 0.067 µg/mL. Further, the amount remaining at 0.5 h in [2] stood at 2%.
